Literature values as cited in patent US20090099261A1, “Omega-3 mixtures” (ISI Brands Inc., priority 2007, published 2009).

Details: dietary intake; Michael J. James et al., Am. J. Clin. Nutr. 77:1140-45 (2003)

Structure (SMILES)	share of dietary fatty acid converted to EPA [%]
CC/C=C\C/C=C\C/C=C\CCCCCCCC(=O)O [LNA, Linolenic acid]	≤ 10
CC/C=C\C/C=C\C/C=C\C/C=C\CCCCC(=O)O [SA, stearidonic acid]	40
